This is an account of results in paper PMC5839409, “Targeting intracellular B2 receptors using novel cell-penetrating antagonists to arrest growth and induce apoptosis in human triple-negative breast cancer” (Oncotarget, 2018).

SMILES strings stand for the structures. Square brackets hold non-standard residues; d marks the D form. Peptide text beside a SMILES is read from it.

Experiment [1] addresses T1, B2R endogenously expressed in the human de-endothelized umbilical veins (Homo sapiens, UniProt P30411).
T1 construct: B2R endogenously expressed in the human de-endothelized umbilical veins (hUV); from tissue; host or cells: human umbilical vein, de-endothelized
T1 sequence (P30411 1-391): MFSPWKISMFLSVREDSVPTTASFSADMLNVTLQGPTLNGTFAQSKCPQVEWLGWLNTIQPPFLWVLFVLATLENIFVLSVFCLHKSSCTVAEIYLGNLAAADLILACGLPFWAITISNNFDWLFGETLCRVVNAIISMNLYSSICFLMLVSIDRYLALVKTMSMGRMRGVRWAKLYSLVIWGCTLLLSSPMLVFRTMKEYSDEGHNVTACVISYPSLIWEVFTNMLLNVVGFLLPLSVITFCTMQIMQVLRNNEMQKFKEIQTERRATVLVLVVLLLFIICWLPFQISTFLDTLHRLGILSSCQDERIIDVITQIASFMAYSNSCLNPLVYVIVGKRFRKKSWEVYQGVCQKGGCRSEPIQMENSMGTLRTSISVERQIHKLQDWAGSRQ
Description: Functional bioassay on isolated human de-endothelized umbilical veins (hUV). Particulars: read-out: biological activity; agonists, isometric contraction of human vessels. The procedure:
For testing the pharmacological activities of agonists, complete concentration-contractile response curves to agents were done at the B2R endogenously expressed in the human de-endothelized umbilical veins (hUV), as previously described. EC50 values (or potencies) of the agonists were calculated from the obtained concentration-response curves. […] The collection of umbilical cords for the bioassays was approved by the local ethical committee, and maternal consent was obtained in every case.

The next experiment deals with MDA-MB-231 cells. Description: Anchorage-dependent clonogenic assay. The class given is cell-based, human. Particulars: 10-14 days. Here is the method: MDA-MB-231 cells were plated at 200 cells/well in a six-well dish in 2 ml DMEM medium containing 10% FBS. […] After 10 to 14 days, colonies were fixed and stained with 0.5% methylene blue in 50% ethanol. Excess of staining solution was removed carefully with tap water and the plates were dried overnight. Colony counting and densitometric analyses (to measure total colony numbers and surface areas) were performed using the Image Pro Plus 5.1 software.

In the next experiment the target is T2, human B2R (Homo sapiens, UniProt P30411).
T2 construct: expressed in transfected cells; host or cells: HEK-293T
T2 sequence (P30411 1-391): T1 sequence (P30411 1-391)
Description: Radioligand competition binding on live adherent HEK-293T cells transiently transfected with hB2R. Particulars: read-out: binding affinity; agonists, HEK-293T cells transfected with B2R.

As for `N=C(N)NCCC[C@H](NC(=O)[C@H](Cc1ccccc1)NC(=O)[C@@H]1CCCN1C(=O)[C@H](CO)NC(=O)[C@H](Cc1ccccc1)NC(=O)CNC(=O)[C@@H]1CCCN1C(=O)[C@@H]1CCCN1C(=O)[C@H](CCCNC(=N)N)NC(=O)CNC(=O)CNC(=O)CNC(=O)[C@@H](CCCNC(=N)N)NC(=O)[C@@H](CCCNC(=N)N)NC(=O)[C@@H](CCCNC(=N)N)NC(=O)[C@@H](CCC(N)=O)NC(=O)[C@@H](CCCNC(=N)N)NC(=O)[C@@H](CCCNC(=N)N)NC(=O)[C@@H](CCCCN)NC(=O)[C@@H](CCCCN)NC(=O)[C@@H](CCCNC(=N)N)NC(=O)CN)C(=O)O` [DTat-BK] (H-G[dR][dK][dK][dR][dR][dQ][dR][dR][dR]GGGRPPGFSPFR-OH; N-terminus and C-terminus assumed), the EC50 in experiment [1] was 350 ± 1 nM. Also, in the experiment on MDA-MB-231 cells, the “colony number (agonist effect)” value was “did not increase colony number” and the “colony surface area (agonist effect)” value is “increase in colony surface area”. Also, on human B2R, the IC50 was found to be 110 ± 4 nM.
